IC50 data for 13 compounds are collected here from US12319672B2, “Alpha-D-galactopyranoside derivatives” (Idorsia Pharmaceuticals Ltd, priority 2019, dated 2025).

One assay concerns the target human Gal-1 (hGal-1). The assay can be described thus: Competitive binding assay: binding of biotinylated hGal-1 to microplate-adsorbed asialofetuin (ASF). The settings on record: Activities on hGal-1; mean values of several measurements. The method, then:
(§1) Evaluation of Compound Inhibitory Activity (IC50)
(§2) The inhibitory activity of compounds is determined in competitive binding assays. This spectrophotometric assay measures the binding of biotinylated human Gal-3 (hGal-3) or human Gal-1 (hGal-1), respectively, to a microplate-adsorbed glycoprotein, asialofetuin (ASF) (Proc Natl Acad Sci USA. 2013 Mar. 26; 110(13):5052-7.). Alternatively, and preferably, a human Gal-1 version in which all six cysteines are substituted by serines may be used.
(§3) Briefly, compounds are serially diluted in DMSO (working dilutions). ASF-coated 384 well plates are supplemented with 22.8 μL/well of biotinylated hGal-3 or hGal-1 in assay buffer (i.e. 300-1000 ng/mL biotinylated hGal-3 or hGal-1) to which 1.2 μL of compound working dilutions are added and mixed.
(§4) Plates are incubated for 3 hours at 4° C., then washed with cold assay buffer (3×50 uL), incubated for 1 hour with 25 μL/well of a streptavidin-peroxidase solution (diluted in assay buffer to 80 ng/mL) at 4° C., followed by further washing steps with assay buffer (3×50 uL). Finally, 25 μL/well of ABTS substrate is added.
(§5) The calculated IC50 values may fluctuate depending on the daily assay performance. Fluctuations of this kind are known to those skilled in the art. IC50 values from several measurements are given as mean values.

For a further assay, the target named is human Gal-3 (hGal-3) (Homo sapiens (Human), UniProt P17931). The assay can be described thus: Competitive binding assay: binding of biotinylated hGal-3 to microplate-adsorbed asialofetuin (ASF). Particulars: Activity on hGal-3; mean values of several measurements. As for the experimental part: as §1, §2, §3, §4, §5
human Gal-3 (hGal-3), sequence (P17931 whole entry): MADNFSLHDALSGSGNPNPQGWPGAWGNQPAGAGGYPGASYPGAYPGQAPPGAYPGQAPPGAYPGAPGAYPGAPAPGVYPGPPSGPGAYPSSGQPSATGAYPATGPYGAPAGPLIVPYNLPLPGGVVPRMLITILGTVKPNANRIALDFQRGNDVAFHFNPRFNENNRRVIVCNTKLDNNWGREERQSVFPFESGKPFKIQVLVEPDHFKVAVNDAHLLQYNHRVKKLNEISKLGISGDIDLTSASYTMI

human Gal-1 (hGal-1), sequence (P09382 2-135 limits assumed): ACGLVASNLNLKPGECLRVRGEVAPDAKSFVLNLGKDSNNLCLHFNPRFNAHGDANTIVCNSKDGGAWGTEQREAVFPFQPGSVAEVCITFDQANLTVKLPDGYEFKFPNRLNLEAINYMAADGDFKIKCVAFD

For “1-(4-(3-(((2R,3R,4R,5R,6R)-3,5-dihydroxy-6-(hydroxymethyl)-4-(4-(3,4,5-trifluorophenyl)-1H-1,2,3-triazol-1-yl)tetrahydro-2H-pyran-2-yl)methyl)isoxazol-5-yl)piperidin-1-yl)ethan-1-one [Example 3.17]”, the 50% inhibitory concentration (IC50) on human Gal-1 (hGal-1) amounted to 0.96 µM; on human Gal-3 (hGal-3), 0.046 µM.

In the case of `CO[C@@H]1[C@@H](n2cc(-c3cc(F)c(F)c(F)c3)nn2)[C@@H](O)[C@@H](CO)O[C@@H]1Cc1cc(C2CCNC2)on1` (mixture of isomers) [Example 2.08, (2R,3R,4S,5R,6R)-2-(hydroxymethyl)-5-methoxy-6-((5-((RS)-pyrrolidin-3-yl)isoxazol-3-yl)methyl)-4-(4-(3,4,5-trifluorophenyl)-1H-1,2,3-triazol-1-yl)tetrahydro-2H-pyran-3-ol], the IC50 on human Gal-1 (hGal-1) is 4.5 µM; on human Gal-3 (hGal-3) it was 0.65 µM. In the case of `CCO[C@@H]1[C@@H](n2cc(-c3cc(F)c(F)c(F)c3)nn2)[C@@H](O)[C@@H](CO)O[C@@H]1CC1CC(C2CCN(C(=O)OC(C)(C)C)CC2)=NO1` (mixture of isomers) [Example 2.31, tert-butyl 4-((RS)-5-(((2R,3R,4S,5R,6R)-3-ethoxy-5-hydroxy-6-(hydroxymethyl)-4-(4-(3,4,5-trifluorophenyl)-1H-1,2,3-triazol-1-yl)tetrahydro-2H-pyran-2-yl)methyl)-4,5-dihydroisoxazol-3-yl)piperidine-1-carboxylate], the values for the concentration for half-maximal inhibition (IC50) on human Gal-1 (hGal-1) and at human Gal-3 (hGal-3) were 1.29 µM and 0.3 µM, respectively. Turning to `CC(C)(C)OC(=O)N1CCC(C2=NOC(C[C@H]3O[C@H](CO)[C@H](O)[C@H](n4cc(-c5cc(F)c(F)c(F)c5)nn4)[C@H]3OCC(F)F)C2)CC1` (mixture of isomers) [Example 2.32, tert-butyl 4-((RS)-5-(((2R,3R,4S,5R,6R)-3-(2,2-difluoroethoxy)-5-hydroxy-6-(hydroxymethyl)-4-(4-(3,4,5-trifluorophenyl)-1H-1,2,3-triazol-1-yl)tetrahydro-2H-pyran-2-yl)methyl)-4,5-dihydroisoxazol-3-yl)piperidine-1-carboxylate], the 50% inhibitory concentration (IC50) at human Gal-1 (hGal-1) came out at 2.96 µM; at human Gal-3 (hGal-3), 0.35 µM.

In the case of `COC(=O)CO[C@@H]1[C@@H](n2cc(-c3cc(F)c(F)c(F)c3)nn2)[C@@H](O)[C@@H](CO)O[C@@H]1CC1CC(C2CCN(C(=O)OC(C)(C)C)CC2)=NO1` (mixture of isomers) [Example 2.33, tert-butyl 4-((RS)-5-(((2R,3R,4S,5R,6R)-5-hydroxy-6-(hydroxymethyl)-3-(2-methoxy-2-oxoethoxy)-4-(4-(3,4,5-trifluorophenyl)-1H-1,2,3-triazol-1-yl)tetrahydro-2H-pyran-2-yl)methyl)-4,5-dihydroisoxazol-3-yl)piperidine-1-carboxylate], the half-inhibitory concentration (IC50) on human Gal-1 (hGal-1) amounted to 2.45 µM; at human Gal-3 (hGal-3), 0.31 µM. In the case of `CC(C)(C)OC(=O)N1CCC(C2=NOC(C[C@H]3O[C@H](CO)[C@H](O)[C@H](n4cc(-c5cc(F)c(F)c(F)c5)nn4)[C@H]3OCC(=O)O)C2)CC1` (mixture of isomers) [Example 2.34, 2-(((2R,3R,4S,5R,6R)-2-(((RS)-3-(1-(tert-butoxycarbonyl)piperidin-4-yl)-4,5-dihydroisoxazol-5-yl)methyl)-5-hydroxy-6-(hydroxymethyl)-4-(4-(3,4,5-trifluorophenyl)-1H-1,2,3-triazol-1-yl)tetrahydro-2H-pyran-3-yl)oxy)acetic acid], the half-maximal inhibitory concentration (IC50) at human Gal-1 (hGal-1) was found to be 1.19 µM; at human Gal-3 (hGal-3) it was 0.068 µM. As to `CNC(=O)CO[C@@H]1[C@@H](n2cc(-c3cc(F)c(F)c(F)c3)nn2)[C@@H](O)[C@@H](CO)O[C@@H]1CC1CC(C2CCN(C(=O)OC(C)(C)C)CC2)=NO1` (mixture of isomers) [Example 2.35, tert-butyl 4-((RS)-5-(((2R,3R,4S,5R,6R)-5-hydroxy-6-(hydroxymethyl)-3-(2-(methylamino)-2-oxoethoxy)-4-(4-(3,4,5-trifluorophenyl)-1H-1,2,3-triazol-1-yl)tetrahydro-2H-pyran-2-yl)methyl)-4,5-dihydroisoxazol-3-yl)piperidine-1-carboxylate], the concentration for half-maximal inhibition (IC50) on human Gal-1 (hGal-1) amounted to 2.62 µM; on human Gal-3 (hGal-3), 0.14 µM. Take `CC(C)(C)OC(=O)N1CCC(C2=NOC(C[C@H]3O[C@H](CO)[C@H](O)[C@H](n4cc(-c5cc(F)c(F)c(F)c5)nn4)[C@H]3OCC(=O)N3CCOCC3)C2)CC1` (mixture of isomers) [Example 2.36, tert-butyl 4-((RS)-5-(((2R,3R,4S,5R,6R)-5-hydroxy-6-(hydroxymethyl)-3-(2-morpholino-2-oxoethoxy)-4-(4-(3,4,5-trifluorophenyl)-1H-1,2,3-triazol-1-yl)tetrahydro-2H-pyran-2-yl)methyl)-4,5-dihydroisoxazol-3-yl)piperidine-1-carboxylate]: the figures for the IC50 at human Gal-1 (hGal-1) and on human Gal-3 (hGal-3) were 2.77 µM and 0.12 µM, respectively. For the compound `OC[C@H]1O[C@H](CC2CC(C3CCNCC3)=NO2)[C@H](O)[C@@H](n2cc(-c3cc(F)c(F)c(F)c3)nn2)[C@H]1O` (mixture of isomers) [Example 3.01, (2R,3R,4R,5R,6R)-2-(hydroxymethyl)-6-(((RS)-3-(piperidin-4-yl)-4,5-dihydroisoxazol-5-yl)methyl)-4-(4-(3,4,5-trifluorophenyl)-1H-1,2,3-triazol-1-yl)tetrahydro-2H-pyran-3,5-diol], the IC50 at human Gal-1 (hGal-1) amounted to 5.71 µM; at human Gal-3 (hGal-3) it was 0.3 µM. For the compound `CN1CCC(C2=NOC(C[C@H]3O[C@H](CO)[C@H](O)[C@H](n4cc(-c5cc(F)c(F)c(F)c5)nn4)[C@H]3O)C2)CC1` (mixture of isomers) [Example 3.02, (2R,3R,4R,5R,6R)-2-(hydroxymethyl)-6-(((RS)-3-(1-methylpiperidin-4-yl)-4,5-dihydroisoxazol-5-yl)methyl)-4-(4-(3,4,5-trifluorophenyl)-1H-1,2,3-triazol-1-yl)tetrahydro-2H-pyran-3,5-diol], the IC50 at human Gal-1 (hGal-1) was determined as 4.62 µM; at human Gal-3 (hGal-3), 0.34 µM. For `CC(=O)N1CCC(C2=NOC(C[C@H]3O[C@H](CO)[C@H](O)[C@H](n4cc(-c5cc(F)c(F)c(F)c5)nn4)[C@H]3O)C2)CC1` (mixture of isomers) [Example 3.03, 1-(4-((RS)-5-(((2R,3R,4R,5R,6R)-3,5-dihydroxy-6-(hydroxymethyl)-4-(4-(3,4,5-trifluorophenyl)-1H-1,2,3-triazol-1-yl)tetrahydro-2H-pyran-2-yl)methyl)-4,5-dihydroisoxazol-3-yl)piperidin-1-yl)ethan-1-one], in that order: 2.49 µM and 0.15 µM.

As to `CO[C@@H]1[C@@H](n2cc(-c3cc(F)c(F)c(F)c3)nn2)[C@@H](O)[C@@H](CO)O[C@@H]1CC1CC(C2CCNCC2)=NO1` (mixture of isomers) [Example 3.04, (2R,3R,4S,5R,6R)-2-(hydroxymethyl)-5-methoxy-6-(((RS)-3-(piperidin-4-yl)-4,5-dihydroisoxazol-5-yl)methyl)-4-(4-(3,4,5-trifluorophenyl)-1H-1,2,3-triazol-1-yl)tetrahydro-2H-pyran-3-ol], the half-maximal inhibitory concentration (IC50) at human Gal-1 (hGal-1) stood at 5.65 µM; on human Gal-3 (hGal-3), 0.55 µM. Consider `CO[C@@H]1[C@@H](n2cc(-c3cc(F)c(F)c(F)c3)nn2)[C@@H](O)[C@@H](CO)O[C@@H]1Cc1cc(C2CCN(C(=O)CC(F)(F)F)CC2)on1` [Example 3.51, 3,3,3-trifluoro-1-(4-(3-(((2R,3R,4S,5R,6R)-5-hydroxy-6-(hydroxymethyl)-3-methoxy-4-(4-(3,4,5-trifluorophenyl)-1H-1,2,3-triazol-1-yl)tetrahydro-2H-pyran-2-yl)methyl)isoxazol-5-yl)piperidin-1-yl)propan-1-one], for which the concentration for half-maximal inhibition (IC50) at human Gal-3 (hGal-3) stood at 0.071 µM.

A word on the IC50: it is the concentration at which inhibition is half-maximal. Low values mean higher potency, high ones lower potency.
